Test results reported in patent publication US20100267743A1, “3-(PHENOXYPYRROLIDIN-3-YL-METHYL)HETEROARYL, 3-(PHENYLPYRROLIDIN-3-YLMETHOXY)HETEROARYL, AND 3-(HETEROARYLPYRROLIDIN-3-YLMETHOXY)HETEROARYL COMPOUNDS” (priority 2009, published 2010).

How the values were obtained:
SERT = SERT (Homo sapiens, UniProt P31645); assay: hSERT radioligand binding assay (3H-citalopram); design: expressed in transfected cells; host or cells: HEK-293; settings: hSERT membranes (HEK-293), 1.0 nM 3H-citalopram; for Ki: read-out: SERT pKi (converted)
Method in brief: (§1)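 Membranes came from HEK-293 cells stably expressing hSERT (0.5 μg protein) or hNET (1 μg), with 3H-citalopram or 3H-nisoxetine respectively. Incubation was 60 min at 22° C in Tris buffer with 120 mM NaCl and 5 mM KCl, pH 7.4, followed by filtration and scintillation counting. pKi was derived by Cheng-Prusoff from IC50 and saturation-derived Kd.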

NET = NET (Homo sapiens, UniProt P23975); assay: hNET radioligand binding assay (3H-nisoxetine); design: expressed in transfected cells; host or cells: HEK-293; settings: hNET membranes (HEK-293), 1.0 nM 3H-nisoxetine; for Ki: read-out: NET pKi (converted)
Method in brief: as §1

Chain of SERT (P31645 whole entry): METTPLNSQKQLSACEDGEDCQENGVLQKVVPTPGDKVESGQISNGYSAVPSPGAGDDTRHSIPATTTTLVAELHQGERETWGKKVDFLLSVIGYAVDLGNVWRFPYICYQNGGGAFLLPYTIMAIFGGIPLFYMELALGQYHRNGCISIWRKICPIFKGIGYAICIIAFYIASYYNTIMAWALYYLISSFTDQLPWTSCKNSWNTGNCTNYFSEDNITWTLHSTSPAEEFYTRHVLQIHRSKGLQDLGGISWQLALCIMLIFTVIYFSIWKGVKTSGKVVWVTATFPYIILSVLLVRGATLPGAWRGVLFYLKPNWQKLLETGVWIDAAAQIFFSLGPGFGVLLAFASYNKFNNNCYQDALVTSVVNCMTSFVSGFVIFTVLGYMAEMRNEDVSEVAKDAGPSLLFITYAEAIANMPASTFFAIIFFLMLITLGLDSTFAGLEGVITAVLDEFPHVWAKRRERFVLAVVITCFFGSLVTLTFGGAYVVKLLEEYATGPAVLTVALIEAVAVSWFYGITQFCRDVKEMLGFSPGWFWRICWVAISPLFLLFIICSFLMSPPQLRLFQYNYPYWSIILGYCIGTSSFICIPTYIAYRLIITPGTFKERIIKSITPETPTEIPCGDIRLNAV
Chain of NET (P23975 whole entry): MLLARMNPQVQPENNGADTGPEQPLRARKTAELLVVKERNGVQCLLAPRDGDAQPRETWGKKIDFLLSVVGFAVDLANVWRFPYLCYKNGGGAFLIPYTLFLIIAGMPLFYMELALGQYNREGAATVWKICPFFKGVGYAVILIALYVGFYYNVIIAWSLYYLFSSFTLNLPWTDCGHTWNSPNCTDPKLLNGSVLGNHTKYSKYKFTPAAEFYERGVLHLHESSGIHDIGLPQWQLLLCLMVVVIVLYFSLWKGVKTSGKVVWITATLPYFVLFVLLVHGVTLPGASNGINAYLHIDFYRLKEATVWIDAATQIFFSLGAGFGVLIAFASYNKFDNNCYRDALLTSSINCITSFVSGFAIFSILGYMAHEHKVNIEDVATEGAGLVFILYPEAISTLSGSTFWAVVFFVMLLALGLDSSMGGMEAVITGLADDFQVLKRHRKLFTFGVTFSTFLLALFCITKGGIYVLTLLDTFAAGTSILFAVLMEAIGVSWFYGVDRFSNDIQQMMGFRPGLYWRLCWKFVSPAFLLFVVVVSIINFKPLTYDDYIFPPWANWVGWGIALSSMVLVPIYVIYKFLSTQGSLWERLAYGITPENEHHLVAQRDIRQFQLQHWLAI

SMILES	Ki (SERT) [nM]	Ki (NET) [nM]	SERT pKi (SERT)	NET pKi (NET)
Fc1cc(Cl)cc(F)c1OC(c1cncc(Cl)c1)C1CCNC1 [Example 2-25, 3-Chloro-5-[(R)-(4-chloro-2,6-difluorophenoxy)-(S)-pyrrolidin-3-yl-methy1]-pyridine]	≤ 100	≤ 100		
Clc1cc(Cl)cc(O[C@@H](c2cncnc2)[C@H]2CCNC2)c1.O=C(O)C(F)(F)F [12-5]			≧7.0	≧5.0
Fc1nc(OC(c2ccccc2)C2CCNC2)c(F)c(F)c1F (stereo not drawn) [14-42]			≧5.0	≧5.0
Clc1ccc(O[C@@H](c2ccccc2)C2CCNC2)cn1 (stereo partly drawn) [15-22]	≤ 100	≤ 10000		
Cc1cccc(Cl)c1O[C@@H](c1ncco1)[C@H]1CCNC1 [6-26]			≧7.0	≧7.0
Cc1cccc(O[C@@H](c2ccccc2)[C@H]2CCNC2)n1.O=C(O)C(F)(F)F [14-11]			≧5.0	≧5.0
Clc1cc(Cl)c(O[C@@H](c2ncco2)[C@H]2CCNC2)cc1Cl [6-1]	≤ 100	≤ 100		
Fc1cc(O[C@@H](c2ccccc2)[C@H]2CCNC2)ccn1.O=C(O)C(F)(F)F [16-6]			≧5.0	≧5.0
Cc1cc(Cl)cc(C)c1O[C@H](c1cncc(Cl)c1)[C@@H]1CCNC1 [Example 2-29, 3-Chloro-5-[(R)-(4-chloro-2,6-dimethylphenoxy)-(S)-pyrrolidin-3-yl-methy1]-pyridine]			≧7.0	≧5.0
Fc1ccc(F)c(O[C@H](c2cncnc2)[C@H]2CCNC2)c1Cl [12-2]	≤ 100	≤ 10000		
CCOc1ncccc1O[C@@H](c1ccccc1)[C@H]1CCNC1.O=C(O)C(F)(F)F [15-20]			≧7.0	≧7.0
COc1ccccc1OC(c1cccnc1)[C@H]1CCNC1 (stereo partly drawn) [Example 2-81, 3-[(S)-(2-Methoxyphenoxy)-pyrrolidin-3-yl-methyl]pyridine]	≤ 10000	≤ 100		
Fc1ccc(F)c(O[C@@H](c2nccs2)[C@H]2CCNC2)c1Cl [Example 5-15]			≧7.0	≧5.0
Cc1ccc(O[C@@H](c2ccccc2)[C@H]2CCNC2)nc1.O=C(O)C(F)(F)F [14-30]			≧5.0	≧7.0
Fc1ccc(OC(c2nccs2)C2CCNC2)c(F)c1F [Example 5-1, 2-[(R)-((S)-Pyrrolidin-3-yl-(2,3,4-trifluorophenoxy)methyl]thiazole]	≤ 100	≤ 10000		
Fc1cncc([C@H](Oc2c(F)cc(F)cc2F)[C@H]2CCNC2)c1 [Example 2-35, 3-Fluoro-5-[(R)-(S)-pyrrolidin-3-yl-(2,4,6-trifluorophenoxy)-methyl]pyridine]	≤ 100	≤ 100		
Fc1cnc(O[C@H](c2ccccc2)[C@@H]2CCNC2)c(F)c1.O=C(O)C(F)(F)F [14-16]			≧7.0	≧7.0
Fc1ccc(O[C@H](c2nccs2)[C@H]2CCNC2)c(Cl)c1 [Example 5-19, 2-[(S)-(2-Chloro-4-fluorophenoxy)-(S)-pyrrolidin-3-ylmethyl]thiazole]	≤ 100	≤ 10000		
Fc1cc(F)c(Cl)c(O[C@@H](c2cnccn2)[C@H]2CCNC2)c1Cl.O=C(O)C(F)(F)F [10-1]			≧7.0	≧7.0

SMILES	Ki (SERT) [nM]	Ki (NET) [nM]	SERT pKi (SERT)	NET pKi (NET)
Cc1cc(Cl)ccc1OC(c1nccs1)[C@H]1CCNC1 (single isomer, unassigned) [Example 4]	≤ 100	≤ 100		
Fc1cc(F)c(OC(c2nccs2)C2CCNC2)c(F)c1 [Example 5-6, 2-[(R)-((S)-Pyrrolidin-3-yl-(2,4,6-trifluorophenoxy)methyl]thiazole]	≤ 10000	≤ 10000		
COc1cc(Cl)ccc1O[C@@H](c1cncc(F)c1)[C@H]1CCNC1 [Example 1]	≤ 100	≤ 100		
FC(F)(F)c1cccnc1O[C@H](c1ccccc1)[C@@H]1CCNC1.O=C(O)C(F)(F)F [14-33]			≧5.0	≧5.0
Fc1cncc([C@@H](Oc2cc(Cl)cc(Cl)c2)[C@H]2CCNC2)c1 [Example 2-66, 3-[(S)-(3,5-Dichlorophenoxy)-(S)-pyrrolidin-3-yl-methyl]-5-fluoropyridine]	≤ 100	≤ 100		
Cc1ccc(F)c(O[C@H](c2nccs2)[C@H]2CCNC2)c1Cl [Example 5-23]			≧7.0	≧7.0
FC(F)(F)Oc1ccccc1O[C@@H](c1ncco1)[C@H]1CCNC1 [6-37]	≤ 10000	≤ 100		
Fc1ccc(OC(c2ccncc2)[C@H]2CCNC2)c(F)c1 (stereo partly drawn) [Example 3-3, 4-[(S)-(2,4-Difluorophenoxy)-pyrrolidin-3-yl-methyl]pyridine]	≤ 10000	≤ 10000		
Clc1ccc(O[C@H](c2ccccc2)[C@@H]2CCNC2)nc1.O=C(O)C(F)(F)F [14-27]			≧7.0	≧7.0
O=C(O)C(F)(F)F.c1ccc(COc2ccccc2O[C@@H](c2ncco2)[C@H]2CCNC2)cc1 [6-36]			≧5.0	≧7.0
COc1cccc(F)c1O[C@@H](c1ncco1)[C@H]1CCNC1.O=C(O)C(F)(F)F [6-41]			≧5.0	≧7.0
Fc1cc(F)c(O[C@@H](c2ncco2)[C@H]2CCNC2)c(F)c1 [6-2]	≤ 10000	≤ 10000		
Clc1cccc(Cl)c1O[C@@H](c1ncco1)[C@H]1CCNC1.O=C(O)C(F)(F)F [6-8]			≧7.0	≧7.0
COc1cc(Cl)c(F)cc1O[C@@H](c1ncco1)[C@H]1CCNC1.O=C(O)C(F)(F)F [6-40]			≧7.0	≧7.0
COc1ccccc1O[C@H](c1cncc(Cl)c1)[C@H]1CCNC1 [Example 2-13, 3-Chloro-5-[(S)-(2-methoxyphenoxy)-(S)-pyrrolidin-3-yl-methyl]pyridine]	≤ 10000	≤ 10000		
c1ccc(C(Oc2cccnc2)C2CCNC2)cc1 (stereo not drawn) [15-32]	≤ 100	≤ 10000		
Cc1cc(Br)cnc1O[C@@H](c1ccccc1)[C@H]1CCNC1.O=C(O)C(F)(F)F [14-21]			≧7.0	≧7.0
Fc1cc(Cl)c(OC(c2nccs2)C2CCNC2)c(Cl)c1 [Example 5-10, 2-[(R)-(2,6-Dichloro-4-fluorophenoxy)-((S)-pyrrolidin-3-yl-methyl]thiazole]	≤ 10000	≤ 10000		
CCc1cc(F)cc(F)c1O[C@@H](c1ncco1)[C@H]1CCNC1 [6-53]			≧7.0	≧7.0

SMILES	Ki (SERT) [nM]	Ki (NET) [nM]	SERT pKi (SERT)	NET pKi (NET)
COc1ncccc1O[C@@H](c1ccccc1)C1CCNC1 (stereo partly drawn) [15-16]	≤ 100	≤ 100		
Fc1ccc(O[C@@H](c2ccccc2)[C@H]2CCNC2)cn1.O=C(O)C(F)(F)F [15-27]			≧7.0	≧5.0
COc1ccccc1OC(c1cncnc1)C1CCNC1 (stereo not drawn) [12-4]			≧5.0	≧7.0
Brc1ccc(O[C@@H](c2ccccc2)[C@H]2CCNC2)nc1.O=C(O)C(F)(F)F [14-20]			≧7.0	≧7.0
CC(=O)c1cc(F)cc(F)c1O[C@@H](c1ncco1)[C@H]1CCNC1.O=C(O)C(F)(F)F [6-28]			≧5.0	≧7.0
Cc1ccc(Cl)c(OC(c2cccnc2)[C@H]2CCNC2)c1Cl (stereo partly drawn) [Example 2-74, 3-[(S)-(2,6-Dichloro-3-methylphenoxy)-pyrrolidin-3-yl-methyl]pyridine]	≤ 100	≤ 100		
COc1ccc(O[C@@H](c2ccccc2)C2CCNC2)cn1 (stereo partly drawn) [15-29]	≤ 100	≤ 10000		
COc1cccc(C(Oc2cccc3ccccc23)C2CCNC2)c1 (stereo not drawn) [21-6]	≤ 100	≤ 100		
Fc1cccnc1O[C@H](c1ccccc1)[C@@H]1CCNC1.O=C(O)C(F)(F)F [14-35]			≧5.0	≧7.0
Clc1ccc(Cl)c(O[C@@H](c2cccnc2)[C@H]2CCNC2)c1Cl [Example 2-67, 3-[(R)-(S)-Pyrrolidin-3-yl-(2,3,6-trichlorophenoxy)methyl]pyridine]	≤ 100	≤ 100		
Clc1cnc(OC(c2ccccc2)C2CCNC2)c(Cl)c1 (stereo not drawn) [14-14]			≧7.0	≧7.0
Fc1ccc(O[C@@H](c2ccccc2)C2CCNC2)cn1 (stereo partly drawn) [15-25]	≤ 100	≤ 10000		
O=C(O)C(F)(F)F.c1ccc([C@H](Oc2cccnc2OC2CCCC2)[C@H]2CCNC2)cc1 [15-13]			≧7.0	≧7.0
O=C(O)C(F)(F)F.c1ccc2c(O[C@@H](c3ncco3)[C@H]3CCNC3)cccc2c1 [19-3]			≧7.0	≧7.0
Fc1cc(F)c(OC(c2nccs2)C2CCNC2)c(F)c1 [Example 5-7, 2-[((S)-((S)-Pyrrolidin-3-yl-(2,4,6-trifluorophenoxy)methyl]thiazole]	≤ 100	≤ 100		
CCc1cc(F)ccc1O[C@@H](c1ncco1)[C@H]1CCNC1.O=C(O)C(F)(F)F [6-30]			≧7.0	≧7.0
Fc1ccc(O[C@H](c2nccs2)[C@H]2CCNC2)cc1Cl [Example 5-31]			≧7.0	≧7.0
Fc1ccc(O[C@H](c2ccccc2)[C@@H]2CCNC2)cn1.O=C(O)C(F)(F)F [15-26]			≧7.0	≧5.0
Clc1ccc(O[C@@H](c2ccccc2)[C@H]2CCNC2)c(Cl)n1.O=C(O)C(F)(F)F [15-3]			≧7.0	≧7.0
